Assays:
[1] = tested on: HSP-90 (heat shock protein 90); assay: Determination of affinity for HSP-90 (elution from purine affinity column, SDS-PAGE densitometry); assay type: binding; design: key: +++: very high; ++: high; +: moderate; details: elution of HSP-90 from purine affinity column with 20, 100 and 500 μM test compound
Description: Affinity of test compounds for HSP-90 was determined as follows: Protein mixtures obtained from a variety of organ tissues (for example: spleen, liver and lung) were reversibly bound to a purine affinity column to capture purine-binding proteins, especially HSP-90. The purine affinity column was washed several times, and then eluted with 20 μM, 100 μM, and 500 μM of test compound. Compounds of Formula I elute HP-90 in a dose-dependent manner vs. a control elution using dimethylsulfoxide. The elution profile of Formula I compounds was determined by 1-dimensional SDS polyacrylamide gel electrophoresis. Gels were stained with a fluorescent stain such as sypro ruby (a highly sensitive fluorescent protein stain that can readily detect less than 1 fmol of total protein, i.e., less than 0.04 ng for a 40 kDa protein) or silver nitrate. The gels were imaged using a standard flat bed gel imager and the amount of protein estimated by densitometry. The percent of HSP-90 protein eluted from the column at each concentration was determined and IC50 values were calculated from these estimates. The identity of a band containing HSP-90 was determined by protein sequencing using mass spectroscopy.
Compounds of the invention are inhibitors of HSP-90 (heat shock protein 90). Several exemplary compounds useful in the methods of the invention are listed below.

[2] = tested on: PC-3 cell proliferation; assay: Cell proliferation assay (WST-1), PC-3; assay type: cell-based; details: Homo sapiens; PC-3 cells, WST-1 readout; read-out: inhibitory activity against PC-3 cell proliferation (IC50 range)
Description: A panel of cancer cell lines was obtained from the DCTP Tumor Repository, National Cancer Institute (Frederick, Md.) or ATCC (Rockville, Md.). Cell cultures were maintained in Hyclone RPMI 1640 medium (Logan, Utah) supplemented with 10% fetal bovine serum and 20 mM HEPES buffer, final pH 7.2, at 37° C. with a 5% CO2 atmosphere. Cultures were maintained at sub-confluent densities. Human umbilical vein endothelial cells (HUVEC) were purchased from Clonetics, a division of Cambrex (Walkersville, Md.). Cultures were established from cryopreserved stocks using Clonetics EGM-2 medium supplemented with 20 mM HEPES, final pH 7.2, at 37° C. with a 5% CO2 atmosphere.
For proliferation assays, cells were seeded with the appropriate medium into 96 well plates at 1,000-2,500 cells per well, depending on the cell line, and were incubated overnight. The following day, test compound, DMSO solution (negative control), or Actinomycin D (positive control) was added to the appropriate wells as 10× concentrated stocks prepared in phosphate buffered saline. The cell plates were then incubated for an additional 2-5 days, depending on the cell line, to allow proliferation to occur. To measure cell density, 50 μL of WST-1 solution (Roche Applied Science, Ind.) diluted 1:5 in phosphate buffered saline was added to each well, and the cells incubated for an additional 1-5 hrs., again depending on the cell line. Optical density was determined for each well at […] using a Tecan GeniosPro plate reader (RTP, NC). The percentage of cell growth was determined by comparing the cell growth in the presence of test compounds to the cells treated with DMSO vehicle (control, 100% growth) and cells treated with Actinomycin D (10 μM, 0% growth). […]

Structure (SMILES) | relative binding affinity to HSP-90 [1] | IC50 [2] [nM]
CC1(C)CC(=O)c2c(C(F)(F)F)nn(-c3ccc(C(N)=O)c(NCC(O)CO)c3)c2C1 (stereo not shown) [Compound 30, 2-(2,3-Dihydroxy-propylamino)-4-(6,6-dimethyl-4-oxo-3-trifluoromethyl-4,5,6,7-tetrahydro-indazol-1-yl)-benzamide] | ++ | 
CC1(C)CC(=O)c2c(C(F)F)nn(-c3ccc(C(N)=O)c(NC4CCSCC4)c3)c2C1 [Compound 32, 4-(3-Difluoromethyl-6,6-dimethyl-4-oxo-4,5,6,7-tetrahydro-indazol-1-yl)-2-(tetrahydro-thiopyran-4-ylamino)-benzamide] | +++ | 
Cc1nn(-c2ccc(C(N)=O)c(NCCCN3CCCC3=O)c2)c2c1C(=O)CC(C)(C)C2 [Compound 34, 2-[3-(2-Oxo-pyrrolidin-1-yl)-propylamino]-4-(3,6,6-trimethyl-4-oxo-4,5,6,7-tetrahydro-indazol-1-yl)-benzamide] | ++ | 
C=CCNc1cc(-n2cc(C)c3c2CC(C)(C)CC3=O)ccc1C(N)=O [Compound 50, 2-(allylamino)-4-(3,6,6-trimethyl-4-oxo-4,5,6,7-tetrahydroindol-1-yl)benzamide] | +++ | 
Cc1cn(-c2ccc(C(N)=O)c(NC3CCc4ccccc43)c2)c2c1C(=O)CC(C)(C)C2 (stereo not shown) [Compound 54, 2-(2,3-dihydro-1H-inden-1-ylamino)-4-(3,6,6-trimethyl-4-oxo-4,5,6,7-tetrahydroindol-1-yl)benzamide] | + | 
Cc1cc2c(n1-c1ccc(C(N)=O)c(Nc3ccc(Cl)cc3)c1)CC(C)(C)CC2=O [Compound 73, 2-[(4-chlorophenyl)amino]-4-(2,6,6-trimethyl-4-oxo-4,5,6,7-tetrahydro-1H-indol-1-yl)benzamide] | + | 
Cc1cc2c(n1-c1cnc(C(N)=O)c(Nc3ccccc3)c1)CC(C)(C)CC2=O [Compound 75, 3-anilino-5-(2,6,6-trimethyl-4-oxo-4,5,6,7-tetrahydro-1H-indol-1-yl)pyridine-2-carboxamide] | +++ | 
Cc1cc2c(n1-c1ccc(C(N)=O)c(N[C@H](C(=O)O)C(C)C)c1)CC(C)(C)CC2=O [Compound 78, N-[2-(aminocarbonyl)-5-(2,6,6-trimethyl-4-oxo-4,5,6,7-tetrahydro-1H-indol-1-yl)phenyl]-L-valine] | + | 
Cc1cc2c(n1-c1ccc(C(N)=O)c(N3CCOCC3)c1)CC(C)(C)CC2=O [Compound 79, 2-morpholin-4-yl-4-(2,6,6-trimethyl-4-oxo-4,5,6,7-tetrahydro-1H-indol-1-yl)benzamide] | + | 
Cc1cc2c(n1-c1ccc(C(N)=O)c(-n3ccnc3)c1)CC(C)(C)CC2=O [Compound 80, 2-(1H-imidazol-1-yl)-4-(2,6,6-trimethyl-4-oxo-4,5,6,7-tetrahydro-1H-indol-1-yl)benzamide] | + | 
CCn1nccc1Nc1cc(-n2c(C)cc3c2CC(C)(C)CC3=O)ccc1C(N)=O [Compound 83, 2-[(1-ethyl-1H-pyrazol-5-yl)amino]-4-(2,6,6-trimethyl-4-oxo-4,5,6,7-tetrahydro-1H-indol-1-yl)benzamide] | +++ | 
COc1cc(Nc2cc(-n3ccc4c3CCCC4=O)ccc2C(N)=O)cc(OC)c1OC [Compound 86, 4-(4-oxo-4,5,6,7-tetrahydro-1H-indol-1-yl)-2-[(3,4,5-trimethoxyphenyl)amino]benzamide] | ++ | 
COc1ccc(Nc2cc(-n3c(C)cc4c3CC(C)(C)CC4=O)ccc2C(N)=O)cn1 [Compound 87, 2-[(6-methoxypyridin-3-yl)amino]-4-(2,6,6-trimethyl-4-oxo-4,5,6,7-tetrahydro-1H-indol-1-yl)benzamide] | ++ | 
Cc1nn(-c2ccc(C(N)=O)c(N[C@H](C)c3ccccc3)c2)c2c1C(=O)CC(C)(C)C2 [Compound 106, 2-{[(1R)-1-phenylethyl]amino}-4-(3,6,6-trimethyl-4-oxo-4,5,6,7-tetrahydro-1H-indazol-1-yl)benzamide] |  | 500 to 5000
Cc1cn(-c2ccc(C(N)=O)c(Nc3ccnc(OCCN(C)C)c3)c2)c2c1C(=O)CC(C)(C)C2 [Compound 108, 2-({2-[2-(dimethylamino)ethoxy]pyridin-4-yl}amino)-4-(3,6,6-trimethyl-4-oxo-4,5,6,7-tetrahydro-1H-indol-1-yl)benzamide] |  | < 500
CC1(C)CC(=O)c2c(-c3ccccc3)cn(-c3ccc(C(N)=O)cc3)c2C1 [Compound 110, 4-(6,6-dimethyl-4-oxo-3-phenyl-4,5,6,7-tetrahydro-1H-indol-1-yl)benzamide] |  | 5000 to 50000

Continued, values first:

relative binding affinity to HSP-90 [1] | IC50 [2] [nM] | Structure (SMILES)
 | 5000 to 50000 | Cc1cn(-c2ccc(C(N)=O)c(NCCNC(=O)CO)c2)c2c1C(=O)CC(C)(C)C2 [Compound 112, 2-{[2-(glycoloylamino)ethyl]amino}-4-(3,6,6-trimethyl-4-oxo-4,5,6,7-tetrahydro-1H-indol-1-yl)benzamide]
 | < 500 | Cc1nn(-c2ccc(C(N)=O)c(NCCS(C)(=O)=O)c2)c2c1C(=O)CC(C)(C)C2 [Compound 113, 2-{[2-(methylsulfonyl)ethyl]amino}-4-(3,6,6-trimethyl-4-oxo-4,5,6,7-tetrahydro-1H-indazol-1-yl)benzamide]
 | < 500 | COc1ccc(Nc2cc(-n3nc(C)c4c3CC(C)(C)CC4=O)ccc2C(N)=O)cc1 [Compound 114, 2-[(4-methoxyphenyl)amino]-4-(3,6,6-trimethyl-4-oxo-4,5,6,7-tetrahydro-1H-indazol-1-yl)benzamide]
 | < 500 | CC1(C)CC(=O)c2c(C(F)F)nn(-c3ccc(C(N)=O)c(NC4CC=CC4)c3)c2C1 [Compound 116, 2-(cyclopent-3-en-1-ylamino)-4-[3-(difluoromethyl)-6,6-dimethyl-4-oxo-4,5,6,7-tetrahydro-1H-indazol-1-yl]benzamide]
 | 500 to 5000 | Cc1nn(-c2ccc(C(N)=O)c(Nc3cccc([S+](C)[O-])c3)c2)c2c1C(=O)CC(C)(C)C2 (stereo not shown) [Compound 123, 2-{[3-(methylsulfinyl)phenyl]amino}-4-(3,6,6-trimethyl-4-oxo-4,5,6,7-tetrahydro-1H-indazol-1-yl)benzamide]
 | < 500 | CC1(C)CC(=O)c2c(C(F)(F)F)nn(-c3ccc(C(N)=O)c(NC4CCN(S(C)(=O)=O)CC4)c3)c2C1 [Compound 124, 4-[6,6-dimethyl-4-oxo-3-(trifluoromethyl)-4,5,6,7-tetrahydro-1H-indazol-1-yl]-2-{[1-(methylsulfonyl)piperidin-4-yl]amino}benzamide]
 | < 500 | Cc1nn(-c2ccc(C(N)=O)c(NC3CCN(C(=O)CCN4CCOCC4)CC3)c2)c2c1C(=O)CC(C)(C)C2 [Compound 127, 2-{[1-(3-morpholin-4-ylpropanoyl)piperidin-4-yl]amino}-4-(3,6,6-trimethyl-4-oxo-4,5,6,7-tetrahydro-1H-indazol-1-yl)benzamide]
 | 500 to 5000 | Cc1nn(-c2ccc(C(N)=O)c(NC3CCN(C(=O)CN)CC3)c2)c2c1C(=O)CC(C)(C)C2 [Compound 129, 2-[(1-glycylpiperidin-4-yl)amino]-4-(3,6,6-trimethyl-4-oxo-4,5,6,7-tetrahydro-1H-indazol-1-yl)benzamide]
 | 500 to 5000 | CN(C)S(=O)(=O)CCNc1cc(-n2nc(C(F)(F)F)c3c2CC(C)(C)CC3=O)ccc1C(N)=O [Compound 136, 2-({2-[(dimethylamino)sulfonyl]ethyl}amino)-4-[6,6-dimethyl-4-oxo-3-(trifluoromethyl)-4,5,6,7-tetrahydro-1H-indazol-1-yl]benzamide]

— patent publication US7928135B2, “Benzene, pyridine, and pyridazine derivatives” (Serenex, Inc., priority 2005, dated 2011)
